Source: patent publication US20090181910A1, “METHOD OF PREVENTION AND ALLEVIATION OF TOXICITY BY MODULATION OF IRF3” (priority 2006, published 2009)

Tests used:
[1] = Serum ALT in APAP hepatotoxicity
CRBPII = experiment: BMM Q-PCR: CRBPII; assay type: cell-based, Murine; conditions: LG268 10 nM with polyI:C 1 μg/ml; IRF3^−/− and IFNAR^−/− BMMs; FIG. 10a
[2] = Dolphin et al. 1987; cited from earlier work
[3] = Survival following APAP treatment; assay type: in vivo, mice; conditions: for survival against APAP overdose: APAP 600 mg/kg
Protocol: FIG. 4: Percentage survival following APAP treatment with or without polyI:C. (A) Wildtype (n=8) fasted and were treated with 0.1% NaCl or polyI:C (100 μg) intravenous (i.v.) 24 hours prior to treatment with APAP (600 mg/kg) by intraperitoneal (i.p.) injection. (B) Wildtype and IRF3−/− (n=6-8) fasted and were treated with 0.1% NaCl or polyI:C (100 μg) intravenous (i.v.) 24 hours prior to treatment with APAP (600 mg/kg) by intraperitoneal (i.p.) injection. (C) Wildtype mice (n=6-8) fasted and were treated with 0.1% NaCl or polyI:C (100 μg) intravenous (i.v.) and PCN (75 mg/kg) intraperitoneal (i.p.) 24 hours prior to treatment with APAP (175 mg/kg) by intraperitoneal (i.p.) injection.
Age and sex matched 6-9 week old mice were used for all experiments. C57/B16 mice were obtained from Jackson Laboratory. IRF3^−/− mice were obtained from Dr. T. Taniguchi. For APAP hepatotoxicity analysis, mice fasted for […] and then administered Vehicle (0.1% NaCl) or APAP (175-600 mg/kg) by intraperitoneal injection (i.p.). For serum and histological studies, mice were sacrificed at 6-7 hours post injection and serum and liver samples were retrieved. For survival studies, mice were studied for up to 5 days. For polyI:C studies, mice were also treated with 0.1% NaCl or polyI:C (100 μg) intravenous (i.v.) 12-24 hours prior to APAP treatment. To study the effects of PCN on APAP treatment, mice were treated with PCN (75 mg/kg) or control (1% DMSO, corn oil) by intraperitoneal (i.p.) 12-24 hours prior to APAP treatment. To study the effects of ethanol (EtOH) on APAP treatment, mice were given 20% EtOH in water ad libidum for 5 days prior to APAP therapy. PolyI:C treatment for these experiments occurred at Day 3 and Day 5. Serum alanine aminotransferase (ALT) levels were determined using manufacturer's protocol (TECO Diagnostics). For H&E staining, liver samples were fixed in formalin for 48 hours. H&E stainings were done by UCLA Tissue Procurement Core Laboratory (TPCL).

ZF5 = experiment: BMM Q-PCR: ZF5 mRNA; assay type: cell-based, Murine; conditions: polyI:C and LPS; data not shown
ZNF202 = experiment: BMM Q-PCR: ZNF202 mRNA; assay type: cell-based, Murine; conditions: polyI:C and LPS; data not shown
RXRα promoter region = experiment: ChIP of Hes1 and HDAC1 in BMMs; assay type: cell-based, Murine; conditions: polyI:C 1 μg/ml 1, 3 and 6 hours; FIG. 9e,f
Protocol: FIG. 9: PolyI:C transcriptionally represses RXRα through recruitment of transcriptional repression machinery. a, BMMs were stimulated with media or polyI:C (1 μg/ml) for 2 hrs, followed by actinomycin D (ActD) (5 μg/ml) for 0, 15, 30, 60, 120 min. BMMs were stimulated with polyI:C (1 μg/ml) for 4 hrs or 8 hrs. RNA was analyzed by Q-PCR. b, Diagram of RXRα promoter based on promoter analysis software (MatInspector). BMMs were stimulated with LPS (10 ng/ml) or polyI:C (1 μg/ml) for 4 hrs. RNA was analyzed by Q-PCR. Wildtype, IRF3^−/− and IFNAR^−/− BMMs were stimulated with polyI:C (1 μg/ml) for 4 hrs. RNA was analyzed by Q-PCR. c, pCMV-RAW 264.7 cells (MT) or pCMV-Hes1-RAW 264.7 cells (Hes1) RNA was analyzed by Q-PCR. d, RAW264.7 cells transfected with siNS or siHes1 duplex oligos were stimulated with polyI:C (1 μg/ml) for 8 hours. RNA was analyzed by Q-PCR. e, f, BMMs were stimulated with polyI:C (1 μg/ml) for 1, 3 and 6 hours. Following stimulation, chromatin immunoprecipitation (ChIP) was performed with anti-Hes1 or anti-HDAC1 antibodies on sonicated samples, washed thoroughly and analyzed by PCR/agarose gel electrophoresis. PCR products on gel are quantified by ImageJ, normalized to Input. g, BMMs were pre-treated with Trichostatin A (TSA) (50 ng/ml) overnight and then stimulated with polyI:C (1 μg/ml) for 4 and 8 hrs. RNA was analyzed by Q-PCR. […]

Question: With “polyinosinic:polycytidylic acid [polyI:C]” as the substance, how does the “prevention of ethanol-promoted APAP induction of serum ALT” value ([1]; 20% EtOH 5 days, polyI:C Day 3 and Day 5, APAP 175 mg/kg, FIG. 2C) read?
Answer: effective at preventing ethanol from promoting APAP induction of serum ALT levels

Question: What about the “prevention of PCN/APAP induction of serum ALT” value ([1]; polyI:C 100 μg i.v. and PCN 75 mg/kg 24 h before APAP 175 mg/kg, FIG. 2B) of the same substance?
Answer: capable of preventing PCN/APAP induction of serum ALT levels

Question: And the “prevention of APAP-induced serum ALT increase” value ([1]; polyI:C 100 μg i.v. pretreatment, APAP 350 mg/kg, wildtype and IRF3-deficient mice, FIG. 2A)?
Answer: effectively prevented such increase in serum ALT only when IRF3 was present

Question: And the “LG268 induction of CRBPII” value (CRBPII)?
Answer: repressed by polyI:C in IFNAR^−/− BMMs but not IRF3^−/− BMMs

Question: What about the “ASA metabolism after polyI:C treatment” value [2] of the same substance?
Answer: results in defective ASA metabolism

Question: And the “survival against APAP overdose” value ([3]; IRF3 deficient mice, FIG. 4B)?
Answer: did not protect from APAP overdose

Question: And the “survival with APAP plus PCN” value ([3]; polyI:C 100 μg i.v. and PCN 75 mg/kg before APAP 175 mg/kg, FIG. 4C)?
Answer: prevents overdose from the combination of APAP and cytochrome P450 inducers such as PCN

Question: What about the “survival against APAP overdose” value ([3]; wildtype mice, polyI:C 100 μg i.v. 24 h prior, FIG. 4A) of the same substance?
Answer: extremely effective at preventing death from APAP overdose

Question: What about the “ZF5 mRNA levels” value (ZF5) of the same substance?
Answer: unaffected

Question: What about the “ZNF202 mRNA levels” value (ZNF202) of the same substance?
Answer: unaffected

Question: What about the “recruitment of Hes1 and HDAC1 (ChIP)” value (RXRα promoter region) of the same substance?
Answer: promotes specific recruitment of Hes1 and HDAC1 to the RXRα promoter region
